This is an account of results in publication PMC6859649 (Free radical biology & medicine, 2017).

The assay has as its target Myeloperoxidase (MPO) (Homo sapiens, UniProt P05164). In words: taurine chloramine chlorination assay. In kind it is biochemical.

Counter-ions that a name gives are not always drawn.

Myeloperoxidase (MPO), sequence (P05164 165-273): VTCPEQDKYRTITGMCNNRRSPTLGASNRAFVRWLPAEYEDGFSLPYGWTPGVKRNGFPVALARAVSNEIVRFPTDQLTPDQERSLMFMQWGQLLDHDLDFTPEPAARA
Myeloperoxidase (MPO), sequence (P05164 279-745): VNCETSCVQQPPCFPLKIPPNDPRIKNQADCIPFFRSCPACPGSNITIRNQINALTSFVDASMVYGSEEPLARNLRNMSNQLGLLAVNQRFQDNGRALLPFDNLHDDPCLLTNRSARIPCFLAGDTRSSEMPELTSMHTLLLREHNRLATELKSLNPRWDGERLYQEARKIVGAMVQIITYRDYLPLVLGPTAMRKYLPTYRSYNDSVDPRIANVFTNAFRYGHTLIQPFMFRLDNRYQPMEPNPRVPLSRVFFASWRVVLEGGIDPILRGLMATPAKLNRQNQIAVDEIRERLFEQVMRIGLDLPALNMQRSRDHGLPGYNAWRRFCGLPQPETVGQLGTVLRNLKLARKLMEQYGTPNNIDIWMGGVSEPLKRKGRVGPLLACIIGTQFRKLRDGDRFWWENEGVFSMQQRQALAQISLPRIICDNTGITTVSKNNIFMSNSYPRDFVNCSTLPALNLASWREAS

The IC50 is the concentration at which inhibition is half-maximal. Turning to `O=S(=O)(O)CCS` [mesna, 2-mercaptoethanesulfonic acid sodium salt], the IC50 was approximately 5 µM.
